Laboratory results taken from patent publication US11731933B2, “Device and method for the desalination of water by means of thermal deionisation and liquid-phase ion extraction liquid” (ADIONICS, priority 2015, dated 2023).
“And” between values parts separate entries of the source, which are not always exact repeats. Identical values can stand only once.

Columns and labels:
[1] = methanol, published complexing constants; cited from earlier work
[2] = methanol; cited from earlier work
[3] = NaCl extraction from 0.2M NaCl water by ASM/CEM composition, ion chromatography of treated water; settings: ASM: 3TFMPhOH; CEM 0.2M; NaCl 0.2M water
Protocol: To 3 mL of 3-(trifluoromethyl)phenol, was added 217 mg of Dibenzo-18-crown-6 in order to obtain a formulation with 0.2 mole/L of DB18C6. This sealed formulation was then orbitally stirred at 500 rpm overnight after 1 mL of distilled water was added twice to allow water saturation of the whole.
The next morning, an aqueous 0.2 mol/L NaCl solution was prepared from twice distilled water, while the formulation that was stirred overnight was allowed to stand for decantation. A clear decantation of the two colorless phases is obtained in a few minutes. 3 mL of the organic extraction solution is then removed and transferred to a flask containing 3 mL of this salt water containing 0.2 M NaCl, then the flask is sealed and orbitally stirred (usually 500 rpm), for 3 hours and at room temperature. It is verified that droplets of the order of 1-2 mm are present in quantity at the selected stirring speed (400 to 900 rpm).
After stirring for 2 hours, stirring is stopped and the whole is left to stand for decantation for at least 10 minutes until the two phases are completely separated. The upper aqueous phase is then removed and then stirred and diluted for analysis of its salinity by a Metrohm Ion Chromatography Incorporating a suitable cation analysis column and a suitable anion analysis column. Similarly, the initial aqueous solution of 0.2M NaCl is also analyzed by this ion chromatography equipment to determine its relative concentration of sodium and chlorides. […]

[4] = NaCl extraction from 0.4M NaCl water by ASM + Calix[4]Est in chloroform (Example 11); settings: for NaCl - 20° C. % ext (average) / NaCl - 60° C. % ext (average): average molar extraction; for Mol % Cl- extracted from the water to be treated / Mol % Na+ extracted from the water to be treated: CEM 0.3 Mol/L, ASM 0.3 Mol/L in CHCl3, 0.4 M NaCl; for Δ % ext: difference 20° C. minus 60° C.
Protocol: The extraction composition is obtained by solubilizing an amount of 4-tert-butyl Calix[4]arene tetraethyl Ester (CAS No. 97600-39-0) and ASM in chloroform CHCl3 to obtain a final concentration after solubilization of the CEM and ASM of 0.3 mol/L for Calix[4]Est and of 0.3 mol/L for ASM, respectively. These sealed formulations were then orbitally stirred at 500 rpm for 2 hours after adding an equivalent volume of twice distilled water to allow water saturation of the entire formulation and control of pH output (pH=7). The extraction composition is then put to stand to settle. All the compositions tested are stable and rapidly decanted (a few minutes at the most).
A 0.4 mol/L NaCl aqueous solution was prepared from twice distilled water.
The organic extraction composition is then slightly heated to promote solubilization of the compounds by hot air gun (temperature of about 50 to 60° C.) for a few seconds (10 to 30 seconds) until a clear solution is obtained.
3 mL of the organic extraction composition is then removed from the lower phase of the settled two-phase mixture and transferred to a vial containing 3 mL of salt water at 0.4 M NaCl and then the flask is sealed and orbitally stirred (at 500 revolutions per minute), for 2 hours at room temperature (RT), that is to say between 20 and 25° C. In the case of extraction at 60° C., magnetic stirring (at 500 revolutions per minute), for 2 hours, is carried out with indirect heating in a metal mold on a heating plate. It is verified that droplets of the order of 1-2 mm are present during these agitations in order to be certain to achieve equilibrium in the NaCl distribution between the two liquid phases at the end of stirring. The appearance of the organic and aqueous phases is clear and colorless or slightly cloudy.
After stirring for 2 hours, stirring is stopped and the solution is put to stand to settle within 10 minutes, at least until the two phases have completely separated off, at the temperature of the test. The upper aqueous phase is then removed and then stirred and diluted for analysis of its salinity by a Metrohm Ion Chromatograph incorporating a suitable cation analysis column and a suitable anion analysis column. Similarly, the initial aqueous solution of NaCl at 0.4M is also analyzed by this ion chromatograph to determine its relative molar concentration in sodium and in chlorides. AN extractions and analyzes were duplicated.

[5] = NaCl extraction from 0.3M NaCl water by ASMC7 at four concentrations + Calix[4]Est in chloroform (Example 12)
Protocol: Four extraction compositions were obtained by solubilizing a constant amount of 4-tert-butylCalix[4]arene tetraethylEster (CAS No. 97600-39-0) and four increasing amounts of ASMC7 in chloroform CHCl3 to obtain four final concentrations after solubilization of CEM and ASM, from 0.34 to 0.36 mol/L for Calix[4]Est and 0.36 mol/L, 0.71 mol/L, 1.09 mol/L and 1.49 mol/L for ASMC7, respectively. These four sealed formulations were then orbitally stirred at 500 rpm for 2 hours after adding an equivalent volume of twice distilled water to allow water saturation of the entire formulation and control of pH at the output (pH=7). The extraction composition is then put to stand for settling. All the compositions tested are stable and rapidly decanted (a few minutes at the most).
An 0.3 mol/L NaCl aqueous solution was prepared from twice distilled water.
3 ml of each organic extraction composition are then removed in the lower phase of the settled two-phase mixture and transferred to four vials, each containing 3 ml of the salt water at 0.3M NaCl, then the flasks are sealed and orbitally stirred (at 500 revolutions per minute), for 2 hours at room temperature (RT), that is to say between 20 and 25° C. In the case of extraction at 60° C., a magnetic stirring (at 500 revolutions per minute), for 2 hours, is carried out with indirect heating in a metal mold on a heating plate. It is verified that droplets of the order of 1-2 mm are present during these agitations in order to be certain to reach equilibrium in the NaCl distribution between the two liquid phases at the end of stirring. The appearance of the organic and aqueous phases is clear and colorless for these 4 formulations tested.
After stirring for 2 hours, stirring is stopped and the solution is put to stand for settling within 10 minutes, at least until the two phases have completely separated off, at the test temperature. Then, the four upper aqueous phases are separately taken and then stirred and diluted for analysis of their salinity by a Metrohm Ion Chromatograph incorporating a suitable cation analysis column and a suitable anion analysis column. Similarly, the initial aqueous solution of 0.3M NaCl is also analyzed by this ion chromatograph to determine its relative molar concentration of sodium and chlorides. All extractions and analyzes were duplicated.

[6] = 60° C., CEM 0.341, ASMC7 0.708 Mol/L, ratio 2.08
[7] = 60° C., CEM 0.345, ASMC7 0.358 Mol/L, ratio 1.04
[8] = 60° C., CEM 0.349, ASMC7 1.088 Mol/L, ratio 3.12
[9] = 60° C., CEM 0.358, ASMC7 1.488 Mol/L, ratio 4.16
[10] = RT, CEM 0.341, ASMC7 0.708 Mol/L, ratio 2.08
[11] = RT, CEM 0.345, ASMC7 0.358 Mol/L, ratio 1.04
[12] = RT, CEM 0.349, ASMC7 1.088 Mol/L, ratio 3.12
[13] = RT, CEM 0.358, ASMC7 1.488 Mol/L, ratio 4.16

C1CCC2OCCOCCOCCOCCOC2C1 (stereo not drawn) [C15C5, Perhydrobenzo[b]-1,4,7,10,′3-pentaoxacyclopentadecane]
Log K(Na+, MeOH, 25° C.) [1]: 3.71-3.9 | Log K(K+, MeOH, 25° C.) [2]: 3.96 | Extraction rate at 23° C., Cl− [3]: 30.7% | Extraction rate at 23° C., Na+ [3]: 21.0% | Extraction rate at 23° C., mean NaCl [3]: 26.0%

CCCCCCCC(=O)Nc1cc(C(F)(F)F)cc(C(F)(F)F)c1 [ASMC7, N-[3,5-bis(trifluoromethyl)phenyl]octanamide]
NaCl - 20° C. % ext (average) [4]: 24.6% | Mol % Cl- extracted from the water to be treated ([4]; 60° C.): 7.6% and 7.3% | Mol % Na+ extracted from the water to be treated ([4]; 60° C.): 5.5% and 5.4% | NaCl - 60° C. % ext (average) ([4]; 60° C.): 6.3% | Mol % Cl- extracted from the water to be treated ([4]; RT): 26.3% and 25.9% | Mol % Na+ extracted from the water to be treated ([4]; RT): 23.6% and 22.8% | Δ % ext [4]: 18.4% | Mol % of Cl− extracted from water to be treated [5, 6]: 26.6% and 27.4% | Mol % of Na+ extracted from water to be treated [5, 6]: 28.1% and 28.2% | Mol % of Cl− extracted from water to be treated [5, 7]: 13.0% and 14.1% | Mol % of Na+ extracted from water to be treated [5, 7]: 9.9% and 13.1% | Mol % of Cl− extracted from water to be treated [5, 8]: 31.0% and 30.4% | Mol % of Na+ extracted from water to be treated [5, 8]: 37.7% and 39.5% | Mol % of Cl− extracted from water to be treated [5, 9]: 45.6% and 39.9% | Mol % of Na+ extracted from water to be treated [5, 9]: 48.4% and 46.9% | Mol % of Cl− extracted from water to be treated [5, 10]: 44.4% | Mol % of Na+ extracted from water to be treated [5, 10]: 44.2% and 45.1% | Mol % of Cl− extracted from water to be treated [5, 11]: 27.9% and 27.2% | Mol % of Na+ extracted from water to be treated [5, 11]: 27.9% and 21.7% | Mol % of Cl− extracted from water to be treated [5, 12]: 51.2% and 52.9% | Mol % of Na+ extracted from water to be treated [5, 12]: 60.0% and 59.8% | Mol % of Cl− extracted from water to be treated [5, 13]: 64.6% and 65.6% | Mol % of Na+ extracted from water to be treated [5, 13]: 71.2% and 65.0% | Δ % ext ([5]; [ASMC7]/[CEM] 1.04): 13.6% | NaCl - 20° C. % ext (average) ([5]; [ASMC7]/[CEM] 1.04): 26.2% | NaCl - 60° C. % ext (average) ([5]; [ASMC7]/[CEM] 1.04, 60° C.): 12.5% | Δ % ext ([5]; [ASMC7]/[CEM] 2.08): 16.9% | NaCl - 20° C. % ext (average) ([5]; [ASMC7]/[CEM] 2.08): 44.5% | NaCl - 60° C. % ext (average) ([5]; [ASMC7]/[CEM] 2.08, 60° C.): 27.6% | Δ % ext ([5]; [ASMC7]/[CEM] 3.12): 21.3% | NaCl - 20° C. % ext (average) ([5]; [ASMC7]/[CEM] 3.12): 55.9% | NaCl - 60° C. % ext (average) ([5]; [ASMC7]/[CEM] 3.12, 60° C.): 34.5% | Δ % ext ([5]; [ASMC7]/[CEM] 4.16): 21.4% | NaCl - 20° C. % ext (average) ([5]; [ASMC7]/[CEM] 4.16): 66.6% | NaCl - 60° C. % ext (average) ([5]; [ASMC7]/[CEM] 4.16, 60° C.): 45.1%

CCCCCCCCCC(=O)Nc1cc(C(F)(F)F)cc(C(F)(F)F)c1 [ASMC9, N-[3,5-bis(trifluoromethyl)phenyl]decanamide]
NaCl - 20° C. % ext (average) [4]: 24.4% | Mol % Cl- extracted from the water to be treated ([4]; 60° C.): 6.9% and 8.0% | Mol % Na+ extracted from the water to be treated ([4]; 60° C.): 5.4% and 5.7% | NaCl - 60° C. % ext (average) ([4]; 60° C.): 6.5% | Mol % Cl- extracted from the water to be treated ([4]; RT): 27.1% and 23.8% | Mol % Na+ extracted from the water to be treated ([4]; RT): 25.2% and 21.7% | Δ % ext [4]: 17.9%

Nc1cc(C(F)(F)F)cc(C(F)(F)F)c1 [AnilineF*, 3,5-Di(trifluoromethyl)aniline, reference compound]
NaCl - 20° C. % ext (average) [4]: 2.7% | Mol % Cl- extracted from the water to be treated ([4]; 60° C.): not detected | NaCl - 60° C. % ext (average) ([4]; 60° C.): 0.0% | Mol % Cl- extracted from the water to be treated ([4]; RT): 4.3% and 2.9% | Mol % Na+ extracted from the water to be treated ([4]; RT): 2.0% and 1.8% | Δ % ext [4]: 2.7%

CCCCCCCCCCCCCC(=O)Nc1cc(C(F)(F)F)cc(C(F)(F)F)c1 [ASMC13, N-[3,5-bis(trifluoromethyl)phenyl]tetradecanamide]
NaCl - 20° C. % ext (average) [4]: 25.0% | Mol % Cl- extracted from the water to be treated ([4]; 60° C.): 6.9% and 9.4% | Mol % Na+ extracted from the water to be treated ([4]; 60° C.): 5.9% and 9.0% | NaCl - 60° C. % ext (average) ([4]; 60° C.): 7.8% | Mol % Cl- extracted from the water to be treated ([4]; RT): 26.2% and 27.4% | Mol % Na+ extracted from the water to be treated ([4]; RT): 22.7% and 23.8% | Δ % ext [4]: 17.2%
